Test results reported in patent US20130012709A1, “NOVEL INHIBITORS OF STEAROYL-CoA-DESATURASE-1 AND THEIR USES” (CENTRE NATIONAL DE LA RECHERCHE SCIENTIFIQUE, priority 2009, published 2013).
Read-outs that look alike come from different tables or passages of the source.

What was measured:
ras SV40 MEFs tumors = experiment: ras SV40 MEFs xenograft, curative and preventive; type: in vivo, mice
Protocol: Male athymic nude Mice (Foxn1 nu/nu) (Harlan, Grannat, France) were used at the age of 7 weeks (weight 25-30 g). All procedures were performed in compliance with the European Convention for the Protection of Vertebrate Animals Used for Experimentation (animal house agreement # B-34-172-27, authorization for animal experimentation #34.324). Experiments were done at least twice for each tested condition. Animals were sacrificed before they became compromised. Xenografts were established by subcutaneously injecting 2×10^6 LNCaP cells, 2×10^6 C4-2 cells or 5×10^5 MEFs SV40 in 100 μl of a Matrigel solution. For curative experiments, tumors were allowed to growth until they were measurable with a caliper. In each group, the mice were randomized and given SCD-1 inhibitor at 80 mg/kg in 100 μl of a labrafil-DMA-tween^80 solution (89:10:1) (treated group) or vehicle alone (control group), by daily intra-peritoneal (i.p.) injection 5 days of week. For preventive experiments, the mice were treated daily for 7 days before the day of xenograft. Tumor volume measurements were taken twice to three times a week and calculated according to the formula: length×width×height×0.5236. Data are expressed as the mean tumor volume or as fold of the start point tumor volume. For survival analysis, animals bearing pre-established C4-2 tumors were treated with BZ36 at 80 mg/kg or 160 mg/kg or with vehicle by daily i.p. injection 5 days of week. All mice were monitored for survival until tumor volume had reached 2000 mm^3 or until death. Analysis of survival was conducted by a log-rank test based on the Kaplan-Meier method. At euthanasia, tumors were excised and fixed in 4% formalin for immunohistological analyses.
Immunohistochemical analysis of SCD-1 expression was performed using high-density Tissue Microarray (TMA) slide (Accumax array) with 39 prostate adenocarcinoma spots from different patients (Gleason scores from 5 to 9) with corresponding normal tissues. […] Sections were mounted in mowiol and analysed rapidly.

SCDs = experiment: Determination of SCD activity in transformed MEFs; type: cell-based, mouse; settings: 25 μM
Protocol: Subconfluent LNCaP, C4-2, PNT2 of Ras SV40 MEFs cells grown in 6-wells plate were incubated with the tested inhibitor at 25 μM for 2 h in serum and fatty acid-free DMEM media supplemented 0.2% BSA. In this environment, the cells are solely dependent on endogenous fatty acid synthesis for production of storage, structural and signaling lipids. Trace amount of [^14C] palmitic acid were then added to the culture (0.5 μCi/well), and cells were incubated for 6 more hours. At the end of the incubation, total cell lipids were extracted and saponified, then released fatty acids were esterified with boron trifluoride in methanol for 90 min at 100° C. The derived methyl esters were separated by argentation TLC (Thermo Fisher Scientific) following the procedure of Wilson and Sargen, using a solvent phase consisting of hexane:ethyl ether (90:10, by vol) (35). Pure stearic and oleic methyl ester acids were run in parallel to the samples. Air-dried plates were scanned on a Phosphorlmager and fatty acid spots on TLC were analysed with Phosphorlmager software. SCD activity was expressed as the ratio of palmitoleic on palmitic methyl ester acids and normalized to cellular DNA content.

C4-2 cells [1] = experiment: Measurement of de novo fatty acid synthesis; type: cell-based; settings: Homo sapiens, C4-2, 25 μM
Protocol: (§1) The tested inhibitor was added overnight at a final concentration of 25 μM to subconfluent cultures of cells grown in 6-wells plate in serum and fatty acid-free DMEM media supplemented with 0.2% BSA. Cultures were then labeled in triplicate with 1.0 μCi of [U—^14C]-palmitate or -stearate for 6 h, and total lipids were folch extracted with chloroform/methanol. Labeled lipids were subjected to TLC in hexane/diethyl ether/acetic acid 90:10:1 (V/V), to separate cholesterol ester, triglycerides and phospholipids. Standards were run for each of the lipid classes. After chromatography, labeled lipid classes were quantified by scintillation counting and radioactivity was normalized to DNA content.

LNCaP cells [2] = experiment: Measurement of de novo fatty acid synthesis; type: cell-based; settings: Homo sapiens
Protocol: as §1

C4-2 cells [3] = experiment: Flow cytometry analysis of cell cycle; type: cell-based, human; settings: CaP cells (C4-2); with a decrease in the S phase
Protocol: (§2) Cells were then rinsed in PBS, pelleted at 400 g for 5 min and maintained on ice for 20 min before resuspension in a […] propidium iodide (Sigma) solution. Cells were kept overnight at 4° C. and the percentages of cells in G1, S and G2-M phases of the cell cycle were measured with a Coulter Epics XL™ flow cytometer (Becton Dickinson) using 488-nm laser excitation. For apoptosis experiment, MEFs were treated with the tested compound at 25 μM for 24 h, then rinced in PBS, pelleted at 400 g for 5 min and stained with annexinV-FITC (Roche Diagnostics, Meylan, France) for 15 min at 4° C. The percentage of annexin positive cells was immediately analysed using 488-nm laser excitation.

LNCaP cells [4] = experiment: Flow cytometry analysis of cell cycle; type: cell-based, human; settings: CaP cells (LNCaP); with a decrease in the S phase
Protocol: as §2

[5] = read-out: inhibition of [U-14C]-palmitate incorporation into phospholipids
[6] = read-out: inhibition of [U-14C]-palmitate incorporation into sterol esters
[7] = read-out: inhibition of [U-14C]-palmitate incorporation into triglycerides
[8] = read-out: inhibition of [U-14C]-stearate incorporation into phospholipids
[9] = read-out: inhibition of [U-14C]-stearate incorporation into sterol esters
[10] = read-out: inhibition of [U-14C]-stearate incorporation into triglycerides

**Q.** With `COc1ccc(Br)c(C(=O)N2CCN(c3ccc(C(=O)NCCCc4ccccc4)cn3)CC2)c1` [BZ36] as the compound, how does the “ras SV40 MEFs tumors growth” value (ras SV40 MEFs tumors; curative, from day 2, maintained along 12 days, vs vehicle) read?
**A.** significantly prevented

**Q.** And the “mice with tumors five days after cells were grafted” value (ras SV40 MEFs tumors; pre-treatment one week prior to graft, almost all vehicle treated mice developed tumors)?
**A.** 50%

**Q.** What about the “decrease of proliferative tumor cells (PCNA immunostaining)” value (ras SV40 MEFs tumors; ras SV40 MEFs xenografts, vs vehicle-treated mice) of the same compound?
**A.** 61%

**Q.** And the “[14C]-palmitoleic to palmitic methyl ester acids ratio” value (SCDs)?
**A.** decreased lipogenesis

**Q.** What about the inhibition at 25 µM (C4-2 cells [1]; [5]) of the same compound?
**A.** 41%

**Q.** And the inhibition at 25 µM (C4-2 cells [1]; [6])?
**A.** 33%

**Q.** What about the inhibition at 25 µM (C4-2 cells [1]; [7]) of the same compound?
**A.** 24%

**Q.** And the inhibition at 25 µM (C4-2 cells [1]; [8])?
**A.** 49%

**Q.** What about the inhibition at 25 µM (C4-2 cells [1]; [9]) of the same compound?
**A.** 70%

**Q.** And the inhibition at 25 µM (C4-2 cells [1]; [10])?
**A.** 19%

**Q.** What about the inhibition at 25 µM (LNCaP cells [2]; [5]) of the same compound?
**A.** 58%

**Q.** What about the inhibition at 25 µM (LNCaP cells [2]; [6]) of the same compound?
**A.** 39%

**Q.** And the inhibition at 25 µM (LNCaP cells [2]; [7])?
**A.** 27%

**Q.** What about the inhibition at 25 µM (LNCaP cells [2]; [8]) of the same compound?
**A.** 81%

**Q.** And the inhibition at 25 µM (LNCaP cells [2]; [9])?
**A.** 77%

**Q.** And the inhibition at 25 µM (LNCaP cells [2]; [10])?
**A.** 78%

**Q.** What about the cell cycle distribution (C4-2 cells [3]) of the same compound?
**A.** accumulation of cells in the G0/G1 phase

**Q.** And the cell cycle distribution (LNCaP cells [4])?
**A.** accumulation of cells in the G0/G1 phase
